Tests used:
[1] = Diuretic activity was determined; format: ADME, Urine
[2] = Inhibitory activity against carbonic anhydrase

Row | Log 1/C [1] | Log Ki [2] | Compound
1 | 0.67 | -5.88 | NS(=O)(=O)c1cccc([N+](=O)[O-])c1
2 | 0.18 | -5.42 | Cc1ccc(S(N)(=O)=O)cc1 [P-TOLUENESULFONAMIDE]
3 |  | -5.34 | COc1ccc(S(N)(=O)=O)cc1
4 | -0.03 | -4.87 | CNc1ccc(S(N)(=O)=O)cc1
5 | 0.17 | -5.3 | Cc1cccc(S(N)(=O)=O)c1
6 | 0.26 | -5.92 | NS(=O)(=O)c1ccc(Br)cc1
7 | 0.57 | -6.85 | NS(=O)(=O)c1ccc([N+](=O)[O-])c(C(F)(F)F)c1
8 | 0.24 | -6.39 | NS(=O)(=O)c1ccc(Cl)c(Cl)c1
9 | -0.3 | -5.52 | NS(=O)(=O)c1ccccc1Cl
10 |  | -5.72 | NS(=O)(=O)c1ccc(Cl)cc1 [P-CHLOROBENZENESULFONAMIDE]
11 | 0.39 | -5.95 | CC(=O)c1ccc(S(N)(=O)=O)cc1
12 | 0.32 | -6.76 | NS(=O)(=O)c1ccc(Cl)c([N+](=O)[O-])c1
13 | -0.3 | -4.79 | Cc1ccccc1S(N)(=O)=O
14 | 0.29 | -5.63 | NS(=O)(=O)c1cccc(Cl)c1
15 | -0.3 | -5.07 | NS(=O)(=O)c1ccccc1[N+](=O)[O-]
16 | 0.13 | -5.21 | NS(=O)(=O)c1ccccc1 [BENZENESULFONAMIDE]
17 | -0.3 |  | Nc1ccc(S(N)(=O)=O)cc1 [SULFANILAMIDE]
18 | 1 | -5.95 | N#Cc1ccc(S(N)(=O)=O)cc1

Reference: ChEMBL document CHEMBL1138634, “Topological modeling of lipophilicity, diuretic activity, and carbonic inhibition activity of benzene sulfonamides: a molecular connectivity approach” (Bioorg Med Chem Lett, 2004)
